Laboratory results reported in article PMC4099110, “Synthesis and Evaluation of Novel Pyrroles and Pyrrolopyrimidines as Anti-Hyperglycemic Agents” (BioMed Research International, 2014).
Values joined by “and” are separate entries in the source; they are usually repeats but may differ in a detail not shown here. Equal values may be shown once.

Experiments:
male Wistar albino rats = experiment: Streptozotocin (STZ) model of diabetes, blood glucose AUC; format: in vivo, rat; conditions: for Potency of antihyperglycemic derivatives compared to Amaryl: decrease in blood glucose relative to Amaryl = 100%, model not stated
Procedure: The complete course of the experiment was conducted using male Wistar albino rats (200-250 g), reared and maintained in the animal house of the institution and provided free access to pelleted food and water ad libitum. The rats were maintained in a controlled environment (12 h light and dark cycle) for about a week for acclimatization. The protocol of the study was approved by the animal ethics committee of the Faculty of Pharmacy, […] University (10-01-2012). The study was conducted in accordance with the EC, directive 86/609/EEC for animal experiments. […] Equivalent doses of all derivatives were calculated according to their molecular weight [M·wt]. Diabetes was induced in overnight fasted rats with a single intraperitoneal injection of streptozotocin (STZ) (Sigma-Aldrich, Co., St. Louis, USA. Catalog number: 1001062761) in a dose of 65 mg/kg. STZ was freshly dissolved in ice cold citrate buffer (0.01 M, pH 4.5) prior to injection. […] Group 2, diabetic + Glimepiride ([…]) (4 mg/kg), served as a reference antidiabetic drug. Groups (3-14) were given the various pyrrole derivatives ([…], b, f, and VIIIf, a, resp.). The treated groups administered the […] and different derivatives orally. For each group, blood glucose was estimated at zero, one, two, four, and six hours after oral administration of derivatives using glucometer (Gluco Dr Super Sensor, AllMedicus Co., Ltd., Anyang, Gyeonggi, Korea). Data were represented as mean area under curve (AUC) ± SD. Significant differences between groups was tested using GraphPad InStat (Graph software Inc., V 3.05, Ralph […], Purdue University). Appropriate graphs were plotted using Microsoft Excel 2007.

Male Wistar rats = experiment: Sucrose-Loaded Model (SLM), blood glucose AUC; format: in vivo, rat; conditions: oral gavage, sucrose load 10 gm/kg, mean AUC of blood glucose 30-120 min, dose equivalent to Glimepiride 4 mg/kg by M.wt, vs untreated normal control
Procedure: The complete course of the experiment was conducted using male Wistar albino rats (200–250 g), reared and maintained in the animal house of the institution and provided free access to pelleted food and water ad libitum. The rats were maintained in a controlled environment (12 h light and dark cycle) for about a week for acclimatization. The protocol of the study was approved by the animal ethics committee of the Faculty of Pharmacy, Helwan University (10-01-2012). The study was conducted in accordance with the EC, directive 86/609/EEC for animal experiments.
Glimepiride (Amaryl) was used as a standard antidiabetic (4 mg/kg) in 1% gum acacia and administered orally. Equivalent doses of all derivatives were calculated according to their molecular weight [M·wt].
Male Wistar rats were fasted overnight. Blood was collected initially and then the compounds were given to corresponding groups consisting of six rats each by oral gavage. A sucrose load of (10 gm/kg) body weight was given to each rat after half an hour posttest treatment. Blood was collected in 30, 60, 90, and 120 min after sucrose load. The percentages (%) fallen in blood glucose level were calculated according to the AUC method.
Data were represented as mean area under curve (AUC) ± SD. Significant differences between groups was tested using GraphPad InStat (Graph software Inc., V 3.05, Ralph Stahlman, Purdue University). Appropriate graphs were plotted using Microsoft Excel 2007. P value less than 0.05 was considered statistically significant.

[1] = In vivo acute toxicity study, serum liver and kidney markers; conditions: rat
[2] = as above; set-up: species or system rat; conditions: for ALP / ALT / AST / Creatinine: rat serum; for levels of sera ALT, AST, ALP, and creatinine versus control untreated group: rats
Procedure: Alanine aminotransferase (ALT) and aspartate aminotransferase (AST) activities in serum were measured according to the Reitman-Frankel calorimetric transaminase procedure, whereas alkaline phosphatase (ALP) was assayed by the kinetic enzymatic method by measuring the rate of hydrolysis of p-nitrophenyl phosphate by ALP according to Henry; all were measured as indicators of hepatic injury. Serum creatinine levels were assayed as an indicator for renal injury in the samples by a calorimetric method, using commercial diagnostic kits (Diamond Diagnostics, Egypt).

[3] = oral, STZ 65 mg/kg i.p. diabetic rats, mean AUC of blood glucose 0-6 h, dose equivalent to Glimepiride 4 mg/kg by M.wt, vs diabetic control

Compound | inhibition in vivo at 4 mg/kg (male Wistar albino rats; Rattus norvegicus, oral, STZ 65 mg/kg i.p. diabetic rats, mean AUC of blood glucose 0-6 h, dose equivalent to Glimepiride 4 mg/kg by M.wt, vs diabetic control, read-out: % reduction in blood glucose compared to control, STZ) [%] | Potency of antihyperglycemic derivatives compared to Amaryl (male Wistar albino rats) | inhibition in vivo at 4 mg/kg (Male Wistar rats; Rattus norvegicus, 2 h, read-out: % reduction in blood glucose compared to control, SLM) [%] | % reduction in blood glucose compared to control, STZ (male Wistar albino rats; [3]) | melting point [°C] | % reduction in blood glucose compared to control, SLM (Male Wistar rats) | death or toxicity symptoms [1] | ALP [2] [U/L] | ALT [2] [U/L] | AST [2] [U/L] | Creatinine [2] [mg/dL] | levels of sera ALT, AST, ALP, and creatinine versus control untreated group [2]
CCC1=C(C)CN(C(=O)NCCc2ccc(S(=O)(=O)NC(=O)N[C@H]3CC[C@H](C)CC3)cc2)C1=O [Amaryl, Glimepiride, reference compound] | 30.4 | 100% | 27.7 |  |  |  |  |  |  |  |  | 
Cc1nc(Cl)c2c(-c3ccccc3)c(-c3ccccc3)n(-c3c(C)n(C)n(-c4ccccc4)c3=O)c2n1 [IVg, 4-(4-Chloro-2-methyl-5,6-diphenyl-7H-pyrrolo[2,3-d]pyrimidin-7-yl)-1,5-dimethyl-2-phenyl-1H-pyrazol-3(2H)-one] |  |  |  | 11.2 ^ a % | 158 to 160 | 13 ^ a % |  |  |  |  |  | 
N#Cc1c(-c2ccccc2)c(-c2ccccc2)n(Cc2ccccc2)c1N [Ia] |  | 109.4% and 109.43% |  | 33.3% and 33.3 ^ a % |  | 17.4% and 17.4 ^ a % | did not die or show any toxicity symptoms | 68.5 ± 12.3 | 17.9 ± 2.7 | 69.4 ± 9.5 | 0.8 ± 0.16 | not significantly changed
Cc1c(-n2cc(-c3ccccc3)c(C#N)c2N)c(=O)n(-c2ccccc2)n1C [Ie, 2-Amino-1-(1,5-dimethyl-3-oxo-2-phenyl-2,3-dihydro-1H -pyrazol-4-yl)-4-phenyl-1H -pyrrole-3-carbonitrile] |  | 97% and 96.99% |  | 29.5% and 29.5 ^ a % |  | 16.7% and 16.7 ^ a % | did not die or show any toxicity symptoms | 73.9 ± 13.2 | 20.5 ± 3.1 | 62.7 ± 9.7 | 0.77 ± 0.14 | not significantly changed
